Experimental data reported in ChEMBL document CHEMBL5214886, “An appraisal of anti-mycobacterial activity with structure-activity relationship of piperazine and its analogues: A review” (Eur J Med Chem, 2021).
Values after ≈ are worked out from the molar mass of the structure shown.

What was measured:
Type in all cases: functional
[1] = tested on: Mycobacterium tuberculosis; experiment: Antimycobacterial activity against multi drug resistant Mycobacterium tuberculosis 16995 assessed as reduction in bacterial growth by MABA analysis
[2] = tested on: Mycobacterium tuberculosis; experiment: Antimycobacterial activity against multi drug resistant Mycobacterium tuberculosis 16833 assessed as reduction in bacterial growth by MABA analysis
[3] = tested on: Mycobacterium tuberculosis; experiment: Antimycobacterial activity against multi drug resistant Mycobacterium tuberculosis assessed as reduction in bacterial growth by two-fold agar dilution method

| SMILES | MIC [1] | MIC [2] | MIC [3] |
| --- | --- | --- | --- |
| O=C(NCc1ccc(N2CCN(c3ccc(F)cc3F)CC2)cc1)c1ccc([N+](=O)[O-])o1 | 3.19 µM (≈ 1.41 µg/mL) | 4.16 µM (≈ 1.84 µg/mL) |  |
| O=C(/C=C(\O)c1cc(Cc2c(F)cc(F)cc2F)cn(Cc2ccccc2F)c1=O)C(=O)N1CCN(c2cccc3ccccc23)CC1 |  |  | ≤ 1.5 µM |
| COc1ccc(N2CCN(c3ccc(CNC(=O)c4ccc([N+](=O)[O-])o4)cc3)CC2)cc1 | 9.16 µM (≈ 4 µg/mL) | 9.16 µM (≈ 4 µg/mL) |  |
| O=C(NCc1ccc(N2CCN(c3ccc(F)cc3)CC2)cc1)c1ccc([N+](=O)[O-])o1 | 4.22 µM (≈ 1.79 µg/mL) | 7.61 µM (≈ 3.23 µg/mL) |  |
| NNC(=O)c1ccncc1 [ISONIAZID] | 0.06 µM (≈ 0.00823 µg/mL) | 0.06 µM (≈ 0.00823 µg/mL) |  |
| CO[C@H]1/C=C/O[C@@]2(C)Oc3c(C)c(O)c4c(O)c(c(/C=N/N5CCN(C)CC5)c(O)c4c3C2=O)NC(=O)/C(C)=C\C=C\[C@H](C)[C@H](O)[C@@H](C)[C@@H](O)[C@@H](C)[C@H](OC(C)=O)[C@@H]1C [RIFAMPIN] | > 48.6 µM | > 48.6 µM |  |
